Assay results taken from US20080058264A1, “AMINO-ACID CONTAINING COMPOSITION FOR INHIBITING ACCUMULATION OF FAT” (AJINOMOTO CO. INC, priority 2006, published 2008).

Tests used:
C57BL/6J male mice [1] = assay: Experimental Example 1: mice fed high-fat feed with added amino acids for eight weeks; assay type: in vivo; conditions: compared with HF feed, 2.0% single amino acid or 1.0%+1.0% in high-fat feed; for body weight of mice at autopsy: FIG. 1; for weight of fat tissue of mice at autopsy (accumulation of body fat): FIG. 2
Method: Forty C57BL/6J male mice (eight-weeks old, available from CLEA Japan, Inc.) were fed with CRF-1 powder (available from Oriental Yeast Co., Ltd.) during one-week acclimation period. The mice were then subjected to an experiment at the beginning of nine-weeks old. […] The weight of feed intake was individually measured, and the amount of energy intake was calculated from the energy value corresponding to 1 g of each experimental feed. After the eight-weeks' experiment by feeding with the respective experimental diets, the mice were subjected to autopsy to determine their body weight, and total fat weight including the peri-epididymal fat, peri-renal fat, mesenteric fat, and subcutaneous fat around the femurs.

C57BL/6J male mice [2] = assay: Reference Example: mice fed high-fat feed with 3.0% L-threonine for eight weeks; assay type: in vivo
Method: Twenty C57BL/6J male mice (eight-weeks old, available from CLEA Japan, Inc.) were fed with CRF-1 powder (available from Oriental Yeast Co., Ltd.) during one-week acclimation period. The mice were then subjected to an experiment at the beginning of nine-weeks old.
The weight of feed intake by the individual mouse was measured, and the amount of energy intake (i.e., kilocalories) was calculated according to the feed from the energy value corresponding to 1 g of each experimental feed. After the eight-weeks' experiment by feeding with the respective experimental diets, the mice were subjected to autopsy to determine their body weight, and the weight of fat tissue sincluding the peri-epididymal fat, peri-renal fat, and mesenteric fat.

Row | amount of energy intake during the feeding period (C57BL/6J male mice [2]; 3.0% L-threonine, FIG. 15) | Compound | body weight of mice at autopsy (C57BL/6J male mice [1]) | weight of fat tissue of mice at autopsy (accumulation of body fat) (C57BL/6J male mice [1]) | body weight of mice at autopsy (C57BL/6J male mice [2]; compared with HF feed, 3.0% L-threonine (group 3T), FIG. 13) | weight of fat tissue at autopsy (C57BL/6J male mice [2]; compared with HF feed, 3.0% L-threonine (group 3T), FIG. 14)
1 |  | CC(C)C[C@H](N)C(=O)O [leucine, L-leucine] | not decreased | not decreased |  | 
2 | not decreased | C[C@@H](O)[C@H](N)C(=O)O [threonine, L-threonine] | not decreased | not decreased | decreased | decreased
